According to US11541063B2, “Compositions and products for use in the treatment of bone fractures and defects” (priority 2014, dated 2023):
Read-outs that look alike come from different tables or passages of the source.

System: MC3T3-E1 cells
Conditions: alendronate only (0 nM Stanolone), MC3T3 cells stimulated for 10 days
Protocol: MC3T3-E1 (ECACC, Acc. No. 99072810) were cultured in α-MEM (Invitrogen, Carlsbad, Calif.) supplemented with 100 U/ml penicillin, 100 ug/ml streptomycin (Invitrogen, Carlsbad, Calif.) and 5% fetal bovine serum (Hyclone, GE Healthcare). Cells were grown under standard conditions (37° C., 5% CO2 and 95% humidity). MC3T3-E1 cells were seeded at a density of 26000 cells/cm2 and seeding of the cells was considered as the day 0 timepoint. On day 1 post-plating, the medium of the MC3T3-E1 cells was replaced with osteogenic medium (the above-mentioned media supplemented with 50 μg/ml Ascorbic Acid (Sigma)), 10 nM β-glycerol phosphate (Sigma) and on day 3 post-plating, hormones or vehicle (0.1% ethanol) were added.
Cells were lysed for 10 minutes with lysisbuffer (100 mM Potassium phosphate, 0.2% Triton X-100, pH 7.8 containing protease inhibitor cocktail (Roche)). […] The luminescence (1 second) was measured with a Filtermax F5 (Molecular Devices).
The acidic phosphatase activity of the cells was determined by adding freshly prepared p-NPP buffer (4-nitrophenyl phosphate (Sigma) in 0.1 M NaAc+0.1% Triton X-100, pH5.5) to the cell lysates and incubated for 1.5 hrs at 37° C. and 5% CO2. […] The absorbance was measured at 405 nm with a Filtermax F5 (Molecular Devices). […]

With `NCCCC(O)(P(=O)(O)O)P(=O)(O)O` [alendronate] as the compound, how does the ALP/AP activity (50 μM) read?
Its ALP/AP activity is “decreases”.

What about the ALP/AP activity (2 and 10 μM) of the same compound?
Its ALP/AP activity is “small increase”.
